Experimental data reported in patent US20210161857A1, “COMPOSITION AND METHOD FOR SUPPRESSING INCREASE IN BLOOD GLUCOSE LEVEL” (SUNTORY HOLDINGS LIMITED, priority 2018, published 2021).

Key:
[1] = Glucose tolerance test after continuous intake (three weeks) in high-fat diet mouse model; format: in vivo, Mice (C57BL/6J); conditions: high fat diet mice, oral glucose 1 g/kg, vs high fat diet group
Description: Evaluation of Action of Isoxanthohumol to Suppress an Increase in Blood Glucose Level by Continuous Intake
The effect of continuous intake of isoxanthohumol on the increase in blood glucose level after glucose intake was studied by the following procedure using a high-fat diet mouse model.
In the table, “Regular diet” is control diet “D12450J” (Research Diets), and “60 kcal % High-fat diet” is very high-fat diet “D12492” (Research Diets); Xanthohumol and isoxanthohumol were the standard samples (purity of 95% or higher) obtained in Preparation Example 1. The “Dosage” in the table indicates the dosage (mg) of the test substance per day per kg body weight. As in Reference Example 1, a dosing solution containing a mixture of the test substance and a solvent (a 0.5 wt % CMC aqueous solution) was used to administer the test substance. The volume of the dosing solution was 10 ml/kg. The amount of the test substance and the volume of the solution were calculated based on the latest body weight on the administration day of the test substance. A 50 wt % glucose aqueous solution was used for glucose intake.
Mice (C57BL/6J, male, 7 weeks of age, CLEA japan, Inc.) were purchased, and they were quarantined and acclimatized for one week. […] The selected animals were divided into groups (n=8 in each group) in the group structure shown in Table 2 by the stratified continuous randomization method based on body weight at the end of the acclimatization period. They were fed with free access to specific basic feed and water. The test substance was orally administered once a day for three weeks.
After fasting for six hours on the last administration day of the test substance, each group was subjected to oral glucose intake to an amount of 1 g per 1 kg body weight, and blood was drawn from the tail vein over time. Soon after blood drawing, the blood glucose level was measured using Glutest Neo Sensor (Sanwa Kagaku Kenkyusho Co., Ltd.).
Statistical processing was performed using Microsoft Office Excel 2003. A significant difference, was tested between the regular diet group and the high fat diet group by Student's t-test (significant level: 1% (p<0.01)). A significant difference was tested between the high fat diet group and each group excluding the regular diet group by Dunnett's multiple comparison test (significant level: 5% (p<0.05)).

[2] = Glucose tolerance test after single intake of test substance; format: in vivo, Mice (C57BL/6J); conditions: single oral intake 30 or 60 mg/kg, 30 min before oral glucose 1 g/kg; vs control group, at any time
Description: Evaluation of Action of Isoxanthohumol to Suppress an Increase in Blood Glucose Level by Single Intake
The effect of single intake of isoxanthohumol on the increase in blood glucose level after glucose intake was examined by the following procedure.
Xanthohumol and isoxanthohumol were the standard samples (purity of 95% or higher) obtained in Preparation Example 1. The “Dosage” in the table, indicates the dosage (mg) of the test substance per kg body weight. A dosing solution containing a mixture of the test substance and a solvent was used to administer the test substance. The solvent was a 0.5 wt % sodium carboxymethylcellulose (CMC) aqueous solution. The volume of the dosing solution was 10 mL/kg A 50 wt % glucose aqueous solution was used for glucose intake.
Mice (C57BL/6J, male, 7 weeks of age, CLEA Japan, Inc.) were purchased, and they were quarantined and acclimatized for one week. […] The selected animals were divided into groups (n=9 in each group) in the group structure shown in Table, 1 by the stratified continuous randomization method based on body weight at the end of the acclimatization period.
After grouping, each group was oral administered with the test substance as described in Table 1. […] Soon after blood drawing, the blood glucose level was measured using Glutest Neo Sensor (Sanwa Kagaku Kenkyusho Co., Ltd.). […]

[3] = high temperature of 100° C.; cited from earlier work
[4] = system: 3T3-L1 adipose cells; conditions: cited from earlier work
[5] = 10 mg/L mixed in drinking water, long-term breeding, high-fat diet mouse model; cited from earlier work
[6] = high-fat diet mouse model, cited from earlier work
[7] = 30 mg/kg/day orally once a day for three weeks
[8] = 60 mg/kg/day orally once a day for three weeks

Structure (SMILES)	action to suppress an increase in blood glucose level [1, 7]	action to suppress an increase in blood glucose level [1, 8]	action to suppress an increase in blood glucose level [2]	thermal stability [3]	secretion of adiponectin [4]	blood glucose level [5]	fasting blood glucose level ([6]; continuous administration 60 mg/kg/day)	fasting blood insulin level ([6]; continuous administration 30 or 60 mg/kg/day)
COc1cc(O)c(CC=C(C)C)c2c1C(=O)CC(c1ccc(O)cc1)O2 (centres unmarked) [isoxanthohumol]	tendency for a suppressed increase in blood glucose level	significant action to suppress an increase in blood glucose level	did not show a significant action to suppress an increase in blood glucose level	stable				
COc1cc(O)c(CC=C(C)C)c(O)c1C(=O)/C=C/c1ccc(O)cc1 [xanthohumol]	No significant action to suppress an increase in blood glucose level	No significant action to suppress an increase in blood glucose level	did not show a significant action to suppress an increase in blood glucose level		promote secretion of adiponectin	decrease in blood glucose level	decreases the fasting blood glucose level	decreases the fasting blood insulin level
